Data taken from patent publication US10538535B2, “Antitumoral compounds” (priority 2017, dated 2020).
Read-outs that look alike come from different tables or passages of the source.

Legend:
A549 cells = experiment: cells; conditions: Homo sapiens, A549, 72 h
Summary of the method: (§1)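 SRB read-out after 72 h exposure; fixed untreated plate served as time-zero reference. Compounds ranged 10 to 0.003 μg/mL over ten 2/5 dilutions, triplicate wells, 1% final DMSO, DMEM with 10% FBS. Values via NCI algorithm, four-parameter logistic regression.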

HT29 cells = experiment: cells; conditions: Homo sapiens, HT-29, 72 h
Summary of the method: as §1

MDA-MB-231 cells = experiment: cells; conditions: Homo sapiens, MDA-MB-231, 72 h
Summary of the method: as §1

PSN1 cells = experiment: cells; conditions: Homo sapiens, PSN1, 72 h
Summary of the method: as §1

[1] = MTMD (Maximum Tolerated Multiple Dose) determination, iv weekly x3; type: in vivo; conditions: mice; iv/Q7dx3
Source text: Female CD-1 or Athymic Nude-Fox1 nu/nu mice (Envigo) were utilized for all experiments. […] Animals were acclimated for five days prior to being individually tattoo-identified. Animal protocols were reviewed and approved according to the regional Institutional Animal Care and Use Committees.
Mice were randomly allocated into experimental groups and intravenously administered, once for the MTD (Maximum Tolerated Dose) determination or one administration a week during three consecutive weeks, for the MTMD (Maximum Tolerated Multiple Dose) determination study. The animals were administered with white formulation or with compound dissolved in the experimental formulation at different concentrations. The volume administered was always 10 mL/kg. Once administered, animals were monitored for clinical signs of systemic toxicity, changes in body weight and mortality up to 14 days after the administration.

MDA-MB-231 tumors = conditions: iv, 3 mg/kg
Procedure: (§2) Female athymic nu/nu mice (Harlan Laboratories Models, S. L. Barcelona, Spain or Envigo, Spain) were utilized for all experiments. Animal were housed in individually ventilated cages Sealsafe® Plus, Techniplast S.P.A.), up to ten per cage on a 12-hour light-dark cycle at 21-23° C. and 40-60% humidity. […] Animals were acclimated for at least 5 days prior to tumor implantation with a tumor cell suspension.
MDA-MB-231 cells were maintained in vitro at 37° C. with 5% CO2 in Dulbecco's Modified Eagle's Medium (Sigma-Aldrich, Co). Culture cells were passaged every 3 to 5 days upon reaching confluence.
(§3) Treatment tolerability was assessed by monitoring body weight evolution, clinical signs of systemic toxicity, as well as evidences of local damage in the injection site.
In xenograft studies with other cell lines: • Tumor volume was calculated using the equation (a·b^2)/2, where a: length (longest diameter) and b: width (shortest diameter) were measured in mm by using digital caliper (Fowler Sylvac, S235PAT).
(§4) Treatments producing >20% lethality and/or 20% net body weight loss were considered toxic.

H460 tumors = conditions: iv, 3 mg/kg
Procedure: as §2
H460 cells were maintained in vitro at 37° C. with 5% CO2 in Dulbecco's Modified Eagle's Medium (Sigma-Aldrich, Co). Culture cells were passaged every 3 to 5 days upon reaching confluence. Each animal was subcutaneously implanted (on the right flank using 26 G needle and a 1 cc syringe) at 4-6 weeks of age with 5×10^6 H460 cells suspended in 0.05 mL of a solution consisting of 50% Matrigel® (Corning Incorporated Life Sciences) and 50% medium without serum or antibiotics.
as §3, §4

HGC27 tumors = conditions: iv, 3 mg/kg
Procedure: as §2
HGC27 cells were maintained in vitro at 37° C. with 5% CO2 in Iscove's Modified Dulbecco's Medium (Sigma Aldrich, Co). Culture cells were passage every 3 to 5 days on reaching confluence. Each animal was subcutaneously implanted (on the right flank using 26 G needle and a 1 cc syringe) at 4-6 weeks of age with 5×10^6 HGC-27 cells suspended in 0.05 mL of a solution consisting of 50% Matrigel® (Corning Incorporated Life Sciences), 50% medium without serum or antibiotics.
as §3, §4

H82 tumors = experiment: In vivo xenograft, human lung (SCLC) H82; conditions: iv weekly, 39-S […], C 3 mg/Kg

SMILES: COc1c(C)cc2c(c1O)[C@@H]1[C@@H]3[C@@H]4SC[C@]5(N[C@H](C)Cc6c5[nH]c5ccccc65)C(=O)OC[C@@H](c5c6c(c(C)c(OC(C)=O)c54)OCO6)N3[C@@H](O)[C@H](C2)N1C [C]
- GI50 (A549 cells): 27.3 nM
- CC50 (A549 cells; read-out: LC50): > 130 nM
- IC (TGI) (A549 cells; read-out: TGI): 0.0663 µM
- GI50 (HT29 cells): 20.8 nM
- CC50 (HT29 cells; read-out: LC50): > 130 nM
- IC (TGI) (HT29 cells; read-out: TGI): 0.0234 µM
- GI50 (MDA-MB-231 cells): 26 nM
- CC50 (MDA-MB-231 cells; read-out: LC50): > 130 nM
- IC (TGI) (MDA-MB-231 cells; read-out: TGI): 0.0546 µM
- GI50 (PSN1 cells): 36.4 nM
- CC50 (PSN1 cells; read-out: LC50): 65 nM
- IC (TGI) (PSN1 cells; read-out: TGI): 0.0442 µM
- MTMD [1]: 3.0 mg/kg
- Median Tumor Volume (MDA-MB-231 tumors; 0 h): 149.4 mm^3
- Median Tumor Volume (MDA-MB-231 tumors; 48 h): 217.1 mm^3
- Median Tumor Volume (MDA-MB-231 tumors; 120 h): 281.3 mm^3
- Median Tumor Volume (MDA-MB-231 tumors; 168 h): 338.6 mm^3
- Median Tumor Volume (MDA-MB-231 tumors; 336 h): 436.9 mm^3
- Median Tumor Volume (MDA-MB-231 tumors; 384 h): 585.7 mm^3
- Median Tumor Volume (MDA-MB-231 tumors; 456 h): 774.7 mm^3
- Median Tumor Volume (MDA-MB-231 tumors; 504 h): 965.9 mm^3
- Median Tumor Volume (MDA-MB-231 tumors; 552 h): 1215.2 mm^3
- Median Tumor Volume (MDA-MB-231 tumors; 672 h): 1785.3 mm^3
- Median Tumor Volume (MDA-MB-231 tumors; 720 h): 2037.1 mm^3
- Median Tumor Volume (H460 tumors; 0 h): 186.1 mm^3
- Median Tumor Volume (H460 tumors; 48 h): 395.4 mm^3
- Median Tumor Volume (H460 tumors; 120 h): 665.9 mm^3
- Median Tumor Volume (H460 tumors; 168 h): 929.5 mm^3
- Median Tumor Volume (H460 tumors; 336 h): 2025.0 mm^3
- Median Tumor Volume (H460 tumors; 384 h): 2025.0 mm^3
- Median Tumor Volume (HGC27 tumors; 0 h): 195.0 mm^3
- Median Tumor Volume (HGC27 tumors; 48 h): 391.0 mm^3
- Median Tumor Volume (HGC27 tumors; 120 h): 578.6 mm^3
- Median Tumor Volume (HGC27 tumors; 168 h): 708.2 mm^3
- Median Tumor Volume (HGC27 tumors; 336 h): 1496.8 mm^3
- Median Tumor Volume (HGC27 tumors; 384 h): 1690.6 mm^3
- Median Tumor Volume (HGC27 tumors; 456 h): 2004.0 mm^3
- Median Tumor Volume (HGC27 tumors; 504 h): 1741.4 mm^3
- Median Tumor Volume (HGC27 tumors; 552 h): 2056.4 mm^3
- Median Tumor Volume (H82 tumors; Table 50, Day 0): 170.5 mm^3
- Median Tumor Volume (H82 tumors; Table 50, Day 2): 265.3 mm^3
- Median Tumor Volume (H82 tumors; Table 50, Day 5): 488.7 mm^3
- Median Tumor Volume (H82 tumors; Table 50, Day 7): 760.0 mm^3
- Median Tumor Volume (H82 tumors; Table 50, Day 9): 899.5 mm^3
- Median Tumor Volume (H82 tumors; Table 50, Day 12): 1038.5 mm^3
- Median Tumor Volume (H82 tumors; Table 50, Day 14): 1213.4 mm^3
- Median Tumor Volume (H82 tumors; Table 50, Day 16): 1256.4 mm^3
- Median Tumor Volume (H82 tumors; Table 50, Day 19): 1741.5 mm^3
- Median Tumor Volume (H82 tumors; Table 50, Day 21): 1878.8 mm^3
- Median Tumor Volume (H82 tumors; Table 50, Day 23): 2057.0 mm^3
